Source: US11617726B2, “Method for preventing, treating, or ameliorating a microbial infection” (priority 2018, dated 2023)

Test system: Acinetobacter baumannii isolates
Assay: Antimicrobial susceptibility test, disc diffusion method (CLSI M100-S24)
Type: cell-based
Set-up: key to Inhibition zone: “NZ” indicated that no zone of inhibition was observed
Settings: for Inhibition zone: disc diffusion
Method: A total of 33 non-duplicate, non-consecutive clinical isolates of Multi-Drug Resistant (MDR) Acinetobacter baumannii were collected from burn wards (“AB1-AB33”). Acinetobacter baumannii ATCC BAA 747 and Pseudomonas aeruginosa ATCC 27853 were used as control strains. The isolates were stored at −80° C. in trypticase soy broth containing 20% glycerol.
Antimicrobial susceptibility tests of the collection of isolates were conducted using the disc diffusion method. The experiment was performed according to the recommendations and guidelines of Clinical Laboratory Standard Institutes (CLSI M100-S24; 2014). Clinical and Laboratory Standards Institute (CLSI), “Performance standards for antimicrobial susceptibility testing; twenty-fourth informational supplement,” Document M100-S24, Clinical and Laboratory Standards Institute (CLSI), Wayne, Pa., USA, 2014.
A panel of commercial antibiotic discs (Amoxicillin (AMX), Amoxicillin/clavulanic acid (AMX/CLA), Piperacillin (PIP), Piperacillin/Tazobactam (PIP/TAZ), Ceftazidime (CAZ), Cefotaxime (CTX), Cefepime (FEP), Cefoxitin (FOX), Aztreonam (ATM), Imipenem (IP), Gentamicin (GEN), Amikacin (AK), Neomycin (NEO), Levofloxacin (LEV), Chloramphenicol (CHL), Tetracycline (TET), sulfamethoxazole/trimethoprim (SUL/TRI) was used for susceptibility testing. All commercial antibiotic discs were purchased from BBL (Becton Dickinson, USA).
Forty grams of Mueller-Hinton Agar (MHA) were suspended in 1 Liter distilled water and then boiled to dissolve the powder completely. The medium was sterilized by autoclaving at 121° C. for 15 min. After autoclaving, the medium was cooled to 45° C. and 25 mL of molten agar media was poured into sterile Petri dishes (90 mm diameter) to give a depth of about 4 mm. The surface of the agar was dried to remove excess moisture before use. The plates were stored at 4-8° C. in sealed plastic bags if not used immediately.
The inoculum suspension was prepared by selecting three to five morphologically similar colonies from overnight growth (16-24 h of incubation) on blood agar medium. […] The suspension density was measured using a UV spectrophotometer calibrated with a 0.5 McFarland standard. The density of the suspension was adjusted to McFarland 0.5 by addition of saline or more microorganisms. The adjusted inoculum suspension was used within 60 min of preparation.
A sterile cotton swab was dipped into the bacterial suspension and the excess fluid was removed by turning the swab against the inside wall of the tube to avoid over-inoculation of plates. The inoculum was spread evenly over the entire surface of the agar plate by swabbing in three directions.
The predetermined panel of antimicrobial disks was applied firmly on the inoculated Mueller-Hinton agar surface within 15 min of inoculation of the plates by a disc dispenser device. A maximum of six disks were accommodated on a 90-mm circular plate.
Within 15 min of application of antimicrobial disks, the plates were inverted and incubated aerobically at 35-37° C. for 18-20 h.
After incubation, inhibition zones were measured at the point where no obvious growth is detected by the unaided eye when the plate is held about 30 cm from the eye. Inhibition zone diameters were measured to the nearest millimeter with a ruler. The plates were read from the back of the plate with reflected light against a dark background. Zone diameters were interpreted and categorized as susceptible “S”, intermediate “I”, or resistant “R” according to the CLSI clinical breakpoint tables (see Table 1 and Table 2).

## NCC[C@H](O)C(=O)N[C@@H]1C[C@H](N)[C@@H](O[C@H]2O[C@H](CN)[C@@H](O)[C@H](O)[C@H]2O)[C@H](O)[C@H]1O[C@H]1O[C@H](CO)[C@@H](O)[C@H](N)[C@H]1O [AK, Amikacin]
Isolate AB1, AK disc
  susceptibility category: S (Sensitive ≥17)
Isolate AB1
  Inhibition zone: 24 mm
Isolate AB2, AK disc
  susceptibility category: S (Sensitive ≥17)
Isolate AB2
  Inhibition zone: 20 mm
Isolate AB3, AK disc
  susceptibility category: S (Sensitive ≥17)
Isolate AB3
  Inhibition zone: 26 mm
Isolate AB4, AK disc
  susceptibility category: S (Sensitive ≥17)
Isolate AB4
  Inhibition zone: 21 mm
Isolate AB5
  Inhibition zone: 7 mm
Isolate AB6, AK disc
  susceptibility category: S (Sensitive ≥17)
Isolate AB6
  Inhibition zone: 30 mm
Isolate AB7
  Inhibition zone: NZ
Isolate AB8
  Inhibition zone: 12 mm
Isolate AB9, AK disc
  susceptibility category: S (Sensitive ≥17)
Isolate AB9
  Inhibition zone: 22 mm
Isolate AB10
  Inhibition zone: NZ
Isolate AB11
  Inhibition zone: NZ
Isolate AB12, AK disc
  susceptibility category: S (Sensitive ≥17)
Isolate AB12
  Inhibition zone: 21 mm
Isolate AB13, AK disc
  susceptibility category: S (Sensitive ≥17)
Isolate AB13
  Inhibition zone: 22 mm
Isolate AB14
  Inhibition zone: NZ
Isolate AB15
  Inhibition zone: 13 mm
Isolate AB16, AK disc
  susceptibility category: S (Sensitive ≥17)
Isolate AB16
  Inhibition zone: 19 mm
Isolate AB17, AK disc
  susceptibility category: S (Sensitive ≥17)
Isolate AB17
  Inhibition zone: 22 mm
Isolate AB18
  Inhibition zone: 14 mm
Isolate AB19
  Inhibition zone: 14 mm
Isolate AB20
  Inhibition zone: NZ
Isolate AB21
  Inhibition zone: 11 mm
Isolate AB22
  Inhibition zone: NZ
Isolate AB23
  Inhibition zone: NZ
Isolate AB24
  Inhibition zone: 14 mm
Isolate AB25
  Inhibition zone: NZ
Isolate AB26, AK disc
  susceptibility category: S (Sensitive ≥17)
Isolate AB26
  Inhibition zone: 18 mm
Isolate AB27
  Inhibition zone: 9 mm
Isolate AB28
  Inhibition zone: 15 mm
Isolate AB29
  Inhibition zone: 15 mm
Isolate AB30
  Inhibition zone: 15 mm
Isolate AB31
  Inhibition zone: NZ
Isolate AB32
  Inhibition zone: NZ
Isolate AB33, AK disc
  susceptibility category: S (Sensitive ≥17)
Isolate AB33
  Inhibition zone: 25 mm

## CC1(C)S[C@@H]2[C@H](NC(=O)[C@H](N)c3ccc(O)cc3)C(=O)N2[C@H]1C(=O)O [AMX, Amoxicillin]
Isolate AB1, AMX disc
  susceptibility category: R (Resistant ≤13)
Isolate AB1
  Inhibition zone: NZ
Isolate AB2, AMX disc
  susceptibility category: R (Resistant ≤13)
Isolate AB2
  Inhibition zone: NZ
Isolate AB3, AMX disc
  susceptibility category: R (Resistant ≤13)
Isolate AB3
  Inhibition zone: NZ
Isolate AB4, AMX disc
  susceptibility category: R (Resistant ≤13)
Isolate AB4
  Inhibition zone: NZ
Isolate AB5, AMX disc
  susceptibility category: R (Resistant ≤13)
Isolate AB5
  Inhibition zone: NZ
Isolate AB6, AMX disc
  susceptibility category: R (Resistant ≤13)
Isolate AB6
  Inhibition zone: NZ
Isolate AB7, AMX disc
  susceptibility category: R (Resistant ≤13)
Isolate AB7
  Inhibition zone: NZ
Isolate AB8, AMX disc
  susceptibility category: R (Resistant ≤13)
Isolate AB8
  Inhibition zone: NZ
Isolate AB9, AMX disc
  susceptibility category: R (Resistant ≤13)
Isolate AB9
  Inhibition zone: NZ
Isolate AB10, AMX disc
  susceptibility category: R (Resistant ≤13)
Isolate AB10
  Inhibition zone: NZ
Isolate AB11, AMX disc
  susceptibility category: R (Resistant ≤13)
Isolate AB11
  Inhibition zone: NZ
Isolate AB12, AMX disc
  susceptibility category: R (Resistant ≤13)
Isolate AB12
  Inhibition zone: NZ
Isolate AB13, AMX disc
  susceptibility category: R (Resistant ≤13)
Isolate AB13
  Inhibition zone: NZ
Isolate AB14, AMX disc
  susceptibility category: R (Resistant ≤13)
Isolate AB14
  Inhibition zone: NZ
Isolate AB15, AMX disc
  susceptibility category: R (Resistant ≤13)
Isolate AB15
  Inhibition zone: NZ
Isolate AB16, AMX disc
  susceptibility category: R (Resistant ≤13)
Isolate AB16
  Inhibition zone: NZ
Isolate AB17, AMX disc
  susceptibility category: R (Resistant ≤13)
Isolate AB17
  Inhibition zone: NZ
Isolate AB18, AMX disc
  susceptibility category: R (Resistant ≤13)
Isolate AB18
  Inhibition zone: NZ
Isolate AB19, AMX disc
  susceptibility category: R (Resistant ≤13)
Isolate AB19
  Inhibition zone: NZ
Isolate AB20, AMX disc
  susceptibility category: R (Resistant ≤13)
Isolate AB20
  Inhibition zone: NZ
Isolate AB21, AMX disc
  susceptibility category: R (Resistant ≤13)
Isolate AB21
  Inhibition zone: NZ
Isolate AB22, AMX disc
  susceptibility category: R (Resistant ≤13)
Isolate AB22
  Inhibition zone: NZ
Isolate AB23, AMX disc
  susceptibility category: R (Resistant ≤13)
Isolate AB23
  Inhibition zone: NZ
Isolate AB24, AMX disc
  susceptibility category: R (Resistant ≤13)
Isolate AB24
  Inhibition zone: NZ
Isolate AB25, AMX disc
  susceptibility category: R (Resistant ≤13)
Isolate AB25
  Inhibition zone: NZ
Isolate AB26, AMX disc
  susceptibility category: R (Resistant ≤13)
Isolate AB26
  Inhibition zone: NZ
Isolate AB27, AMX disc
  susceptibility category: R (Resistant ≤13)
Isolate AB27
  Inhibition zone: NZ
Isolate AB28, AMX disc
  susceptibility category: R (Resistant ≤13)
Isolate AB28
  Inhibition zone: 9 mm
Isolate AB29, AMX disc
  susceptibility category: R (Resistant ≤13)
Isolate AB29
  Inhibition zone: NZ
Isolate AB30, AMX disc
  susceptibility category: R (Resistant ≤13)
Isolate AB30
  Inhibition zone: NZ
Isolate AB31, AMX disc
  susceptibility category: R (Resistant ≤13)
Isolate AB31
  Inhibition zone: 8 mm
Isolate AB32, AMX disc
  susceptibility category: R (Resistant ≤13)
Isolate AB32
  Inhibition zone: 8 mm
Isolate AB33, AMX disc
  susceptibility category: R (Resistant ≤13)
Isolate AB33
  Inhibition zone: NZ
